Measured values: patent publication US7276512B2, “Benzo[a]pyrano[3,2-h]acridin-7-one compounds” (Les Laboratoires Servier, priority 2003, dated 2007)

What was measured:
[1] = tested on: L1210 murine leukaemia; experiment: In vitro cytotoxicity, Microculture Tetrazolium Assay, L1210; assay type: cell-based; conditions: L1210, 2 days incubation; read-out: IC50 (concentration which inhibits proliferation of the treated cells by 50%)
Protocol: (§1) Four cell lines were used: • 1 murine leukaemia: L1210, • 1 human epidermoid carcinoma: KB-3-1, • 1 human colon carcinoma: HT29, • 1 human prostate carcinoma: LNCap.
(§2) The cells are cultured in RPMI 1640 complete culture medium containing 10% foetal calf serum, 2 mM glutamine, 50 units/ml of penicillin, 50 μg/ml of streptomycin and 10 mM Hepes, pH=7.4. The cells are distributed on microplates and are exposed to the cytotoxic compounds. The cells are then incubated for 2 days (L1210) or 4 days (human lines). The number of viable cells is then quantified by a colorimetric assay, the Microculture Tetrazolium Assay (Cancer Res. 1987, 47, 939-942). The results are expressed in terms of the IC50 (the concentration of cytotoxic agent which inhibits proliferation of the treated cells by 50%).

[2] = tested on: KB-3-1 human epidermoid carcinoma; experiment: In vitro cytotoxicity, Microculture Tetrazolium Assay, KB-3-1; assay type: cell-based; conditions: KB-3-1, 4 days incubation; read-out: IC50 (concentration which inhibits proliferation of the treated cells by 50%)
Protocol: as §1, §2

[3] = tested on: HT29 human colon carcinoma; experiment: In vitro cytotoxicity, Microculture Tetrazolium Assay, HT29; assay type: cell-based; conditions: HT-29, 4 days incubation; read-out: IC50 (concentration which inhibits proliferation of the treated cells by 50%)
Protocol: as §1, §2

[4] = tested on: LNCap human prostate carcinoma; experiment: In vitro cytotoxicity, Microculture Tetrazolium Assay, LNCap; assay type: cell-based; conditions: 4 days incubation, read-out: IC50 (concentration which inhibits proliferation of the treated cells by 50%)
Protocol: as §1, §2

[5] = tested on: C38 adenocarcinoma of the colon; experiment: Anti-tumour activity with respect to C38 adenocarcinoma of the colon; assay type: in vivo; conditions: i.v. on days 12 and 22, s.c. C38 in B6D2F1 mice
Protocol: Anti-Tumour Activity with Respect to C38 Adenocarcinoma of the Colon
Tumour fragments of C38 adenocarcinoma of the colon weighing approximately 30 mg were implanted under the skin of B6D2F1 mice (Iffa Credo, France) on day 0. After growth of the tumour, the mice were divided into control (18 animals) and treated (6 or 7 animals) groups, which were homogeneous with respect to tumour size. The products were administered twice by the i.v. route on days 12 and 22, at their Maximum Tolerated Dose (MTD), MTD/2 and MTD/4.
The tumours were measured twice a week and the tumour volumes were calculated according to the following formula: volume (mm^3)=length (mm)×[…]/2.
The anti-tumour activity is expressed as % T/C: […]
V0 and Vt being the initial volume of the tumour and its volume at measurement time t, respectively.
The optimum dose is the dose giving the lowest T/C value without toxicity (early death or weight loss greater than 20%).

Structure (SMILES)	IC50 [1] [nM]	IC50 [2] [nM]	IC50 [3] [nM]	IC50 [4] [nM]	T/C ([5]; optimum dose of 4 mg/kg) [%]	inhibition of the tumour growth ([5]; optimum dose of 4 mg/kg) [%]	T/C ([5]; optimum dose of 100 mg/kg) [%]
COc1cc2c(c3c1c(=O)c1c4ccccc4ccc1n3C)[C@@H](OC(C)=O)[C@@H](OC(C)=O)C(C)(C)O2 (racemic) [Example 5, (±)-cis-1,2-Diacetoxy-6-methoxy-3,3,14-trimethyl-1,2,3,14-tetrahydro-7H-benzo[α]pyrano[3,2-h]-acridin-7-one]	730	140	1180	570	5	95	
COc1cc2c(c3c1c(=O)c1c4ccccc4ccc1n3C)[C@H]1OC(=O)O[C@H]1C(C)(C)O2 (racemic) [Example 6, (±)-cis-7-Methoxy-4,4,15-trimethyl-15,15c-dihydro-4H-benzo[α][1,3]-dioxolo[4′,5′:4,5]pyrano[3,2-h]acridine-2,8[3aH]-dione]	60	15					
COc1cc2c(c3c1c(=O)c1ccccc1n3C)C=CC(C)(C)O2 [acronycine, reference compound]							27
